Measured values: ChEMBL document CHEMBL4177537, “Identification of a new class of potent Cdc7 inhibitors designed by putative pharmacophore model: Synthesis and biological evaluation of 2,3-dihydrothieno[3,2-d]pyrimidin-4(1H)-ones” (Bioorg Med Chem, 2017)

Tests used:
[1] = target: Rho-associated protein kinase 1 (Homo sapiens, UniProt Q13464); assay: Inhibition of recombinant human N-terminal GST-tagged ROCK1 (1 to 477 residues) expressed in baculovirus expression system using biotin-STK substrate-2 as substrate preincubated for 5 mins followed by ATP addition after 2 hrs by TR-FRET assay
[2] = target: CDC7/DBF4 (Cell division cycle 7-related protein kinase/Activator of S phase kinase) (Homo sapiens, UniProt O00311); assay: Inhibition of recombinant human Cdc7 (1 to 574 residues)/human N-terminal GST-tagged DBF4 (1 to 674 residues) expressed in baculovirus expression system using His-tagged MCM2 as substrate preincubated for 10 mins followed by ATP addition by HTRF assay
[3] = target: Cyclin-dependent kinase 2/cyclin E1 (Homo sapiens, UniProt P24941); assay: Inhibition of recombinant human Cdk2 (1 to 298 residues)/human N-terminal GST-tagged cyclinE (1 to 410 residues) expressed in baculovirus expression system using histone H1 as substrate after 90 mins in presence of ATP by kinase-glo assay
[4] = target: Cell division cycle 7-related protein kinase (Homo sapiens, UniProt O00311); assay: Inhibition of Cdc7 in human HeLa cells assessed as reduction in MCM2 phosphorylation at ser40 residues after 7 hrs by Western blot analysis; format: cell-based
[5] = system: COLO 205; assay: Cytotoxicity against human COLO205 cells after 3 days by CellTiter-Glo luminescent cell viability assay; format: functional, cell-based; conditions: COLO 205, 72 h
[6] = Solubility of the compound; format: physicochemical

CC1(CC(F)(F)F)NC(=O)c2sc(-c3ccncc3)cc2N1 (stereo not given)
IC50 [1]: 31 nM
IC50 [2]: 2.7 nM
IC50 [3]: 1200 nM

CCC1(C)NC(=O)c2sc(-c3ccncc3)cc2N1 (stereo not given)
IC50 [1]: 36 nM
IC50 [2]: 7.5 nM
IC50 [3]: 2000 nM

Cc1n[nH]cc1-c1cc2c(s1)C(=O)N[C@]1(CC[C@@](O)(c3ccc(F)cc3)CC1)N2
IC50 [1]: 130 nM
IC50 [2]: 170 nM
IC50 [3]: > 10000 nM

Cc1c(-c2cn[nH]c2)sc2c1N(C)C(C)(C)NC2=O
IC50 [1]: 44 nM
IC50 [2]: 14 nM
IC50 [3]: 26 nM

CC1(C)Nc2cc(-c3ccncc3)sc2C(=O)N1Cc1ccccc1
IC50 [1]: 1.5 nM
IC50 [2]: > 10000 nM
IC50 [3]: 650 nM

CN1c2c(sc(-c3cn[nH]c3)c2Br)C(=O)NC1(C)C
IC50 [1]: 22 nM
IC50 [2]: 9.5 nM
IC50 [3]: 26 nM

CN1C(=O)c2sc(-c3ccncc3)cc2NC1(C)C
IC50 [1]: 240 nM
IC50 [2]: 450 nM
IC50 [3]: > 10000 nM

CC1(C)NC(=O)c2cc(-c3ccncc3)sc2N1
IC50 [1]: 100 nM
IC50 [2]: 140 nM

O=C1NC2(CCCCC2)Nc2cc(-c3ccncc3)sc21
IC50 [1]: 53 nM
IC50 [2]: 3 nM
IC50 [3]: 2000 nM

CC(C)C1(C)NC(=O)c2sc(-c3ccncc3)cc2N1 (stereo not given)
IC50 [1]: 35 nM
IC50 [2]: 8.2 nM
IC50 [3]: 1400 nM

Cc1n[nH]cc1-c1cc2c(s1)C(=O)N[C@]1(CC[C@@](O)(C3CCCCC3)CC1)N2
IC50 [1]: 350 nM
IC50 [2]: 380 nM
IC50 [3]: > 10000 nM

Cc1n[nH]cc1-c1cc2c(s1)C(=O)NC(C)(C)N2C
IC50 [1]: 54 nM
IC50 [2]: 2.9 nM
IC50 [3]: 260 nM

Cc1n[nH]cc1-c1cc2c(s1)C(=O)N[C@]1(CC[C@](O)(C3CCCCC3)CC1)N2
IC50 [1]: 2900 nM
IC50 [4]: > 1000 nM
EC50 [5]: 6200 nM
IC50 [2]: 2 nM
IC50 [3]: 2200 nM
solubility [6]: Soluble

CN1c2cc(-c3cn[nH]c3)sc2C(=O)NC1(C)C
IC50 [1]: 130 nM
IC50 [2]: 8.4 nM
IC50 [3]: 160 nM

CN1c2cc(-c3ccncc3)sc2C(=O)NC1(C)C
IC50 [1]: 140 nM
IC50 [2]: 9.9 nM
IC50 [3]: 2100 nM

NC(=O)c1sc(-c2ccncc2)cc1N
IC50 [2]: 1200 nM

O=C1NC2(CCCC2)Nc2cc(-c3ccncc3)sc21
IC50 [1]: 100 nM
IC50 [2]: 8.2 nM
IC50 [3]: 4900 nM

O=c1[nH]c(=O)c2sc(-c3ccncc3)cc2[nH]1
IC50 [2]: 690 nM

Cc1n[nH]c(C)c1-c1cc2c(s1)C(=O)NC(C)(C)N2C
IC50 [1]: 2100 nM
IC50 [2]: 290 nM
IC50 [3]: 1100 nM

Cc1n[nH]cc1-c1cc2c(s1)C(=O)N[C@]1(CC[C@](O)(c3ccc(F)cc3)CC1)N2
IC50 [1]: 820 nM
IC50 [4]: > 1000 nM
EC50 [5]: 4500 nM
IC50 [2]: 1.2 nM
IC50 [3]: 960 nM
solubility [6]: Soluble

Cc1n[nH]cc1-c1cc2c(s1)C(=O)NC(C)(CC(F)(F)F)N2C (stereo not given)
IC50 [1]: 22 nM
IC50 [4]: 210 nM
EC50 [5]: 330 nM
IC50 [2]: 1 nM
IC50 [3]: 420 nM
solubility [6]: Soluble

CCCC1(C)NC(=O)c2sc(-c3ccncc3)cc2N1 (stereo not given)
IC50 [1]: 33 nM
IC50 [2]: 6.3 nM
IC50 [3]: 2000 nM

CC1(C)NC(=O)c2sc(-c3ccncc3)cc2N1
IC50 [1]: 90 nM
IC50 [2]: 26 nM
IC50 [3]: 3200 nM

Cc1n[nH]cc1-c1cc2c(s1)C(=O)NC1(CCCCC1)N2
IC50 [1]: 48 nM
IC50 [4]: 290 nM
EC50 [5]: 470 nM
IC50 [2]: 1.5 nM
IC50 [3]: 1300 nM
solubility [6]: Soluble

O=C1NC2(CCCCCC2)Nc2cc(-c3ccncc3)sc21
IC50 [1]: 37 nM
IC50 [2]: 3.6 nM
IC50 [3]: 2300 nM

CCc1n[nH]cc1-c1cc2c(s1)C(=O)NC(C)(C)N2C
IC50 [1]: 350 nM
IC50 [2]: 13 nM
IC50 [3]: 360 nM
